This note sets out measurements from patent publication EP0067666A1, “Salts of antimicrobial naphthyridine and quinoline compounds and their production” (priority 1981, dated 1982).

SMILES strings stand for the structures. Values after ≈ are worked out from the molar mass of the structure shown. Read-outs that look alike come from different tables or passages of the source. Some results are limits rather than exact numbers.

In data set [1] the test system is Entero cloacae MA 2646. Briefly: Antibacterial activity, MIC. The data set is classed as cell-based.
Data set [2] deals with E. coli Vogel. Briefly: Antibacterial activity, MIC. The data set is classed as cell-based.
The test system of data set [3] is Klebs. pneumoniae MGH-2. As to the kind of experiment: Antibacterial activity, MIC. The data set is classed as cell-based.
Data set [4] relates to Proteus retgeri M 1771. As to the kind of experiment: Antibacterial activity, MIC. The data set is classed as cell-based.
In data set [5] the test system is Pseudo. aeruginosa UI-18. As to the kind of experiment: Antibacterial activity, MIC. The data set is classed as cell-based.
Data set [6] relates to Staph. aureus H 228. As to the kind of experiment: Antibacterial activity, MIC. The data set is classed as cell-based.
The subject of data set [7] is Staph. aureus UC-76. As to the kind of experiment: Antibacterial activity, MIC. The data set is classed as cell-based.
The test system of data set [8] is Strep. faecalis MGH-2. As to the kind of experiment: Antibacterial activity, MIC. The data set is classed as cell-based.
In data set [9] the test system is Strep. pneumoniae SV-1. As to the kind of experiment: Antibacterial activity, MIC. The data set is classed as cell-based.
For data set [10], the system named is Strep. pyogenes C-203. As to the kind of experiment: Antibacterial activity, MIC. The data set is classed as cell-based.
Data set [11] relates to Klebsiella pneumoniae MGH-2. As to the kind of experiment: Acute mouse protection test. The data set is classed as in vivo. The following applies: single dose given at time of challenge; for ED50: Klebsiella pneumoniae.
Data set [12] concerns Escherichia coli Vogel. As to the kind of experiment: Acute mouse protection test. The data set is classed as in vivo. The following applies: single dose given at time of challenge; for ED50: Escherichia coli.
Data set [13] concerns Staphylococcus aureus UC-76. Briefly: Acute mouse protection test. The data set is classed as in vivo. The conditions noted are these: single dose given at time of challenge, compound B series.
Data set [14] can be described thus: Lyophilization of the salts. The data set is classed as physicochemical. An excerpt:
The unpredictable characteristics of the salts prepared from Compounds A and B are clear from consideration of the results reported in Table 1. These characteristics were considered in view of the necessary requirements (a-f) outlined above for preparing a useful parenteral dosage form. […] From the data in Table 1, the lactate salts appear to be useful; however, lactic acid cannot be consistently obtained in a satisfactory grade in presently available commercial forms and is therefore not useful. The choline and sodium salts were ruled out based on the pH of their respective solutions.

Data set [15] in a line: Two-way crossover oral trial, drug blood levels by disk agar diffusion microbiological assay. The following applies: Beagle dogs, single 25 mg/kg (parent compound equivalent) oral dose in hard gelatine capsules; compound B compared with compound D as the glutamate. The data set is classed as in vivo. The method, then:
Drug blood levels were determined by a disk agar diffusion microbiological assay.
For orientation: A growth-free zone around the sample is the usual read-out of agar diffusion tests.

Setting [16] is: subcutaneous, compound B series.
[17] abbreviates: subcutaneous, compound A series.

Consider `CCn1cc(C(=O)O)c(=O)c2cc(F)c(N3CCNCC3)nc21` [B Glutamate], for which the “MIC µg/ml Entero cloacae MA 2646” value in [1] (based on content of compound B) was 0.2 µg/mL (≈ 0.624 µM). Also, the “MIC µg/ml E. coli Vogel” value in [2] (based on content of compound B) was <0.1 µg/mL. In addition, the “MIC µg/ml Klebs. pneumoniae MGH-2” value in data set [3] (based on content of compound B) was found to be 0.2 µg/mL (≈ 0.624 µM). Further, the “MIC µg/ml Proteus retgeri M 1771” value in data set [4] (based on content of compound B) worked out at 0.1 µg/mL (≈ 0.312 µM). In addition, the “MIC µg/ml Pseudo. aeruginosa UI-18” value in data set [5] (based on content of compound B) is 0.2 µg/mL (≈ 0.624 µM). The “MIC µg/ml Staph. aureus H 228” value in data set [6] (based on content of compound B) turned out to be 1.6 µg/mL (≈ 4.99 µM). For the same compound, in [7] (based on content of compound B), the “MIC µg/ml Staph. aureus UC-76” value was <0.1 µg/mL. Also, in data set [8] (based on content of compound B), the “MIC µg/ml Strep. faecalis MGH-2” value came to 3.1 µg/mL (≈ 9.68 µM). In addition, the “MIC µg/ml Strep. pneumoniae SV-1” value in data set [9] (based on content of compound B) is 3.1 µg/mL (≈ 9.68 µM). In addition, in data set [10] (based on content of compound B), the “MIC µg/ml Strep. pyogenes C-203” value is 6.3 µg/mL (≈ 19.7 µM). Further, the “Single sc Dose PD50 (mg/kg) ± 95% Confidence Limits Klebsiella pneumoniae MGH-2” value in data set [11] (setting [16]) was found to be 1.9 ± 0.9 mg/kg. Also, the “Single po Dose PD50 (mg/kg) ± 95% Confidence Limits Escherichia coli Vogel” value in [12] (compound B series) is 2.9 ± 1.0 mg/kg. The “Single sc Dose PD50 (mg/kg) ± 95% Confidence Limits Escherichia coli Vogel” value in [12] (setting [16]) is on record as 1.6 ± 0.6 mg/kg. Further, the “Single po Dose PD50 (mg/kg) ± 95% Confidence Limits Staphylococcus aureus UC-76” value in [13] (oral) is reported as 12.0 ± 3.0 mg/kg. In data set [13] (subcutaneous), the “Single sc Dose PD50 (mg/kg) ± 95% Confidence Limits Staphylococcus aureus UC-76” value stood at 2.8 ± 1.0 mg/kg.

Turning to `CCn1cc(C(=O)O)c(=O)c2cc(F)c(N3CCNCC3)cc21` [A Gluconate], the “MIC µg/ml Entero cloacae MA 2646” value in data set [1] (based on content of compound A) stood at 0.2 µg/mL. Also, the “MIC µg/ml E. coli Vogel” value in data set [2] (based on content of compound A) was <0.1 µg/mL. Also, the “MIC µg/ml Klebs. pneumoniae MGH-2” value in data set [3] (based on content of compound A) amounted to 0.2 µg/mL. Also, in data set [4] (based on content of compound A), the “MIC µg/ml Proteus retgeri M 1771” value was <0.1 µg/mL. For the same compound, the “MIC µg/ml Pseudo. aeruginosa UI-18” value in data set [5] (based on content of compound A) was 0.2 µg/mL. Moreover, the “MIC µg/ml Staph. aureus H 228” value in data set [6] (based on content of compound A) was 1.6 µg/mL. The “MIC µg/ml Staph. aureus UC-76” value in data set [7] (based on content of compound A) was 0.2 µg/mL. The “MIC µg/ml Strep. faecalis MGH-2” value in [8] (based on content of compound A) amounted to 0.8 µg/mL. Also, the “MIC µg/ml Strep. pneumoniae SV-1” value in data set [9] (based on content of compound A) came to 1.6 µg/mL. The “MIC µg/ml Strep. pyogenes C-203” value in data set [10] (based on content of compound A) worked out at 0.8 µg/mL. Further, in data set [11] (oral, compound A series), the “Single po Dose PD50 (mg/kg) ± 95% Confidence Limits Klebsiella pneumoniae MGH-2” value is recorded as 13 ± 6 mg/kg. In addition, the “Single sc Dose PD50 (mg/kg) ± 95% Confidence Limits Klebsiella pneumoniae MGH-2” value in data set [11] (setting [17]) turned out to be 1.4 ± 0.3 mg/kg. Moreover, the “Single po Dose PD50 (mg/kg) ± 95% Confidence Limits Escherichia coli Vogel” value in data set [12] (compound A series) turned out to be 3.9 ± 0.9 mg/kg. In addition, the “Single sc Dose PD50 (mg/kg) ± 95% Confidence Limits Escherichia coli Vogel” value in data set [12] (setting [17]) was 0.5 ± 0.1 mg/kg.

As for `CCn1cc(C(=O)O)c(=O)c2cc(F)c(N3CCNCC3)cc21` [A acetate], in data set [14], the lyophilization entry is “cannot be successfully lyophilized”.

For `CCn1cc(C(=O)O)c(=O)c2cc(F)c(N3CCNCC3)cc21` [Compound A, 1-ethyl-6-fluoro-1,4-dihydro-4-oxo-7-(1-piperazinyl)-3-quinolinecarboxylic acid, reference compound], the minimal inhibitory concentration (MIC) in data set [1] (based on content of compound A) is < 0.1 µg/mL; in data set [2] (Escherichia coli, based on content of compound A), 0.1 µg/mL (≈ 0.313 µM); in data set [3] (Klebsiella pneumoniae, MGH2, based on content of compound A), 0.2 µg/mL (≈ 0.626 µM); in data set [4] (based on content of compound A), < 0.1 µg/mL; in data set [6] (Staphylococcus aureus, H228, based on content of compound A), 1.6 µg/mL (≈ 5.01 µM); in [7] (Staphylococcus aureus, UC76, based on content of compound A), 0.1 µg/mL (≈ 0.313 µM). In addition, the MIC in data set [8] (Enterococcus faecalis, MGH2, based on content of compound A) came out at 1.6 µg/mL (≈ 5.01 µM); in data set [9] (Streptococcus pneumoniae, SV1, based on content of compound A), 0.8 µg/mL (≈ 2.51 µM); in data set [10] (Streptococcus pyogenes, C203, based on content of compound A), 0.8 µg/mL (≈ 2.51 µM). The “MIC µg/ml Pseudo. aeruginosa UI-18” value in [5] (based on content of compound A) is 0.4 µg/mL (≈ 1.25 µM). Further, the ED50 was 15 ± 3 mg/kg in data set [11] (MGH2, po, oral, compound A series, read-out: Single po Dose PD50 (mg/kg) ± 95% Confidence Limits Klebsiella pneumoniae MGH-2); 1.3 ± 0.3 mg/kg in data set [11] (MGH2, sc, subcutaneous, compound A series, read-out: Single sc Dose PD50 (mg/kg) ± 95% Confidence Limits Klebsiella pneumoniae MGH-2); 3.3 ± 0.5 mg/kg in data set [12] (po, compound A series, read-out: Single po Dose PD50 (mg/kg) ± 95% Confidence Limits Escherichia coli Vogel); 0.5 ± 0.1 mg/kg in data set [12] (sc, subcutaneous, compound A series, read-out: Single sc Dose PD50 (mg/kg) ± 95% Confidence Limits Escherichia coli Vogel).

As for `CCn1cc(C(=O)O)c(=O)c2cc(F)c(N3CCNCC3)nc21` [Compound B L-Glutamic, 1-Ethyl-6-fluoro-1,4-dihydro-4-oxo-7-(1-piperazinyl)-1,8-naphthyridine-3-carboxylic acid L-glutamate], in data set [15], the drug half-life result is “no significant difference” and the peak blood level result is on record as “no significant difference”.

As usually defined, the MIC is the lowest concentration that inhibits growth of the organism. A lower MIC goes with a more susceptible organism.
